Paper PMC12005801, “Non‐Membrane Active Peptide Resensitizes MRSA to β‐Lactam Antibiotics and Inhibits S. aureus Virulence” (Advanced Science, 2025)
Read-outs that look alike come from different tables or passages of the source.

Legend:
[1] = system: S. aureus 29213; experiment: MIC of β-lactams with/without GN1; format: cell-based, Staphylococcus aureus; details: for MIC: Staphylococcus aureus, antibiotic alone; for MIC (+1/2 MIC GN1): antibiotic + 1/2 MIC GN1
Experimental: MICs determination of drugs was based on the standard microdilution method as described previously.^[ [46] ^] Briefly, compounds were twofold serial dilution with MHB. Next, AMPs were added to the log‐phase bacteria suspensions (1 × 10^6 CFUs mL^−1) and then mixed with compounds in a 96‐well microliter plate (Corning, NY, USA).

[2] = system: MRSA T144; experiment: MIC assay of β-lactams in the presence of AMPs (potentiation); format: cell-based, Staphylococcus aureus; details: for Potentiation (fold)^c, MIC^a / MIC^b: antibiotic with 1/4 MIC GN1
Experimental: A) Potentiation of different AMPs to piperacillin (PIP) against MRSA T144. 1/4 MIC AMPs were mixed with bacteria (10^6 CFU mL^−1) in MH medium and cultured with diluted PIP in 96‐well plates overnight. […] All experiments were conducted with three biological replicates and data were presented as mean ± SD.

[3] = system: MRSA T144; experiment: MIC assay, agent alone; format: cell-based, Staphylococcus aureus; set-up: MIC^a, MIC in the presence of AMPs only: unit not given beside the values; details: for MIC: Staphylococcus aureus
[4] = system: MRSA T144; experiment: Time-killing assay; format: cell-based, Staphylococcus aureus; details: identical concentrations alone: GN1 8 µg mL^−1, PIP 16 µg mL^−1, 12 h
Experimental: Briefly, overnight bacteria culture was diluted 1:1000 into LB and incubated for 4 h at 37 °C with 200 rpm. […] At the time points 0, 2, 4, 6, 8, 10, and 12 h, 100 µL bacteria culture was removed and resuspended in PBS and the serial dilutions were spotted on LB agar. After incubation overnight at 37 °C, the colony counts were calculated.

[5] = system: MRSA T144; details: addition of glutamate
Experimental: G) Fold changes in MIC values of various β‐lactams in the presence of glutamate against MRSA T144. […] All experiments were conducted with three biological replicates and data were presented as mean ± SD. Statistical significance was analyzed by ordinary one‐way or two‐way ANOVA (*P < 0.05, **P < 0.01, ***P < 0.001, ****P < 0.0001). ns, not significant.

[6] = MRSA T144, read-out: MIC^a, MIC in the presence of antibiotics only
[7] = MRSA, read-out: MIC^a, MIC in the presence of antibiotics only

Row | Compound | MIC [1] | MIC (+1/2 MIC GN1) [1] | MIC^b, MIC in combination of antibiotics and 1/4 MIC GN1 [2] | Potentiation (fold)^c, MIC^a / MIC^b [2] | MIC [3, 6] | MIC [3, 7] | other results
1 | CC1(C)S[C@@H]2[C@H](NC(=O)[C@H](N)c3ccccc3)C(=O)N2[C@H]1C(=O)O [Ampicillin] | 16 µg/mL | 8 µg/mL | 8 µg/mL | 64 fold | 512 µg/mL |  | 
2 | CC1(C)S[C@@H]2[C@H](NC(=O)C(C(=O)O)c3ccccc3)C(=O)N2[C@H]1C(=O)O (stereo partly drawn) [Carbenicillin] |  |  | 1 µg/mL | 32 fold |  | 32 µg/mL | 
3 | CO/N=C(\C(=O)N[C@@H]1C(=O)N2C(C(=O)[O-])=C(C[N+]3(C)CCCC3)CS[C@H]12)c1csc(N)n1 [Cefepime] | 4 µg/mL | 2 µg/mL | 2 µg/mL | 4 fold |  | 8 µg/mL | 
4 | CO/N=C(\C(=O)N[C@@H]1C(=O)N2C(C(=O)O)=C(CSc3nc(=O)c(=O)[nH]n3C)CS[C@H]12)c1csc(N)n1 [Ceftriaxone] |  |  | 4 µg/mL | 8 fold |  | 32 µg/mL | 
5 | CO/N=C(\C(=O)N[C@@H]1C(=O)N2C(C(=O)O)=C(COC(N)=O)CS[C@H]12)c1ccco1 [Cefuroxime] |  |  | 1 µg/mL | 8 fold |  | 8 µg/mL | 
6 | C[C@@H](O)[C@H]1C(=O)N2C(C(=O)O)=C(S[C@@H]3CN[C@H](C(=O)N(C)C)C3)[C@H](C)[C@H]12 [Meropenem] | 0.0625 µg/mL | 0.03125 µg/mL | 0.0625 µg/mL | 16 fold |  | 1 µg/mL | 
7 | Cc1onc(-c2ccccc2)c1C(=O)N[C@@H]1C(=O)N2[C@@H]1SC(C)(C)[C@@H]2C(=O)O [Oxacillin] |  |  | 0.03125 µg/mL | 32 fold | 1 µg/mL |  | 
8 | CCN1CCN(C(=O)N[C@@H](C(=O)N[C@@H]2C(=O)N3[C@@H]2SC(C)(C)[C@@H]3C(=O)O)c2ccccc2)C(=O)C1=O [Piperacillin] | 2 µg/mL | 0.5 µg/mL | 8 µg/mL |  | > 512 µg/mL |  | Time-kill kinetics, single agent [4]: failed to prevent bacterial proliferation; MIC ([3]; MRSA T144, read-out: MIC of PIP alone): 512 µg/mL
9 | CC1(C)S[C@@H]2[C@H](NC(=O)[C@H](C(=O)O)c3ccsc3)C(=O)N2[C@H]1C(=O)O [Ticarcillin] | 2 µg/mL | 2 µg/mL | 1 µg/mL | 16 fold | 16 µg/mL |  | 
10 | N[C@@H](CCC(=O)O)C(=O)O [glutamate] |  |  |  |  |  |  | Reduction of MIC values of three β‐lactam antibiotics [5]: 2-16 fold
11 | Ac-WKVKWKVKWKVK-NH2 [WK-12] |  |  |  |  |  |  | Potentiation (fold)^c, MIC^c / MIC^b ([2]; MIC of piperacillin only / MIC of piperacillin with 1/4 MIC AMP): 4 fold; MIC^b, MIC of piperacillin in the presence of 1/4 MIC AMPs ([2]; label = the AMP added at 1/4 MIC, no unit in table (text gives µg mL^−1)): 128; MIC^a, MIC in the presence of AMPs only ([3]; MRSA T144, microdilution in MHB, 1 × 10^6 CFUs mL^−1, 37 °C, 16–18 h, no unit in table (text gives µg mL^−1)): 32
